Results on 23 compounds are retold here after patent US20130252930A1 (BIOMARIN PHARMACEUTICAL INC., priority 2010, published 2013).

The first assay concerns the target T1, CYP17 (human testicular microsome) (Homo sapiens, UniProt P05093).
T1 construct: using microsomal fraction from human testis (Celsis Cat #S00110) as the enzyme source; tissue Celsis S00110; host or cells: human testis microsomal fraction
T1 sequence (P05093 1-508): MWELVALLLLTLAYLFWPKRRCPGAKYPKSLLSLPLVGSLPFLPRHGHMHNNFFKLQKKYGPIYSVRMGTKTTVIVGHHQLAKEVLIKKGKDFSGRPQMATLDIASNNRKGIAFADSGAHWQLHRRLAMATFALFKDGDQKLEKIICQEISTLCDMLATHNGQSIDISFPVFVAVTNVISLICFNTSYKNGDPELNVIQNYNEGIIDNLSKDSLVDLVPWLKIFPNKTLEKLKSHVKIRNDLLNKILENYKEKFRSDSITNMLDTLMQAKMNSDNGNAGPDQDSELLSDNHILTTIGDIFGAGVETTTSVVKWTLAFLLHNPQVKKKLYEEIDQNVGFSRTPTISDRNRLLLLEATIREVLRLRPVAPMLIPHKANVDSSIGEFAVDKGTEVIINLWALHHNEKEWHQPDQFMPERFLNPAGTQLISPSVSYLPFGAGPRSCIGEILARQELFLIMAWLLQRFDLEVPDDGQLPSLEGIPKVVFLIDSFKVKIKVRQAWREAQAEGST
The assay can be described thus: CYP17 enzymatic assay (% inhibition at 1 nM) (Biological Example 12). It is filed as biochemical. The following applies: compound at 1 nM, read-out: Biological Example No. 12: CYP17 enzymatic assay % inhibition at 1 nM.
As a reminder, the inhibition is the relative decrease from the control value, in per cent. In the case of `C[C@]12CC[C@H]3[C@@H](CC=C4C[C@@H](OC(=O)Nc5cccnc5)CC[C@@]43C)C1=CC=C2c1cccnc1` [Compound 204, (3S,10R,13S)-10,13-dimethyl-17-(pyridin-3-yl)-2,3,4,7,8,9,10,11,12,13-decahydro-1H-cyclopenta[a]phenanthren-3-yl pyridin-3-ylcarbamate], the inhibition at 0.001 µM lay within 10 to 50%.

Regarding `Cc1ccncc1C(=O)O[C@H]1CC[C@@]2(C)C(=CC[C@H]3C4=CC=C(c5cccnc5)[C@@]4(C)CC[C@@H]32)C1` [Compound 205, (3S,10R,13S)-10,13-dimethyl-17-(pyridin-3-yl)-2,3,4,7,8,9,10,11,12,13-decahydro-1H-cyclopenta[a]phenanthren-3-yl 4-methylnicotinate], the inhibition at 0.001 µM lay within 10 to 50%.

Regarding `CC(CO)(CO)C(=O)O[C@H]1CC[C@@]2(C)C(=CC[C@H]3C4=CC=C(c5cccnc5)[C@@]4(C)CC[C@@H]32)C1` [Compound 206, (3S,10R,13S)-10,13-dimethyl-17-(pyridin-3-yl)-2,3,4,7,8,9,10,11,12,13-decahydro-1H-cyclopenta[a]phenanthren-3-yl 3-hydroxy-2-(hydroxymethyl)-2-methylpropanoate], the inhibition at 0.001 µM is less than 10%.

Turning to `CN1CCC(C(=O)O[C@H]2CC[C@@]3(C)C(=CC[C@H]4C5=CC=C(c6cccnc6)[C@@]5(C)CC[C@@H]43)C2)CC1` [Compound 207, (3S,10R,13S)-10,13-dimethyl-17-(pyridin-3-yl)-2,3,4,7,8,9,10,11,12,13-decahydro-1H-cyclopenta[a]phenanthren-3-yl 1-methylpiperidine-4-carboxylate], the inhibition at 0.001 µM was in the range of 10 to 50%.

The same assay, now with this note: compound at 1 nM, read-out: CYP17 enzymatic assay % inhibition at 1 nM (Biological Example No. 12).
Turning to `CNC1C[C@H]2[C@@H]3CC=C(n4ccnc4)[C@@]3(C)CC[C@@H]2[C@@]2(C)CCC3CC312` (mixture of isomers) [Compound 248, (3aR,5aS)-6-(1H-imidazol-1-yl)-N,3a,5a-trimethyl-1,1a,2,3,3a,3b,4,5,5a,8,8a,8b,9,10-tetradecahydrocyclopenta[a]cyclopropa[2,3]cyclopenta[1,2-f]naphthalen-10-amine], the inhibition at 0.001 µM was less than 10%.

For `CC(C)C(=O)O[C@H]1CC[C@@]2(C)C(=CCC3C4=CC=C(c5cccnc5)[C@@]4(C)CCC32)C1` (stereo partly drawn) [Compound 191, (3S,10R,13S)-10,13-dimethyl-17-(pyridin-3-yl)-2,3,4,7,8,9,10,11,12,13-decahydro-1H-cyclopenta[a]phenanthren-3-yl isobutyrate], the inhibition at 0.001 µM lay within 10 to 50%.

As for `CC(C)(C)C(=O)O[C@H]1CC[C@@]2(C)C(=CCC3C4=CC=C(c5cccnc5)[C@@]4(C)CCC32)C1` (stereo partly drawn) [Compound 192, (3S,10R,13S)-10,13-dimethyl-17-(pyridin-3-yl)-2,3,4,7,8,9,10,11,12,13-decahydro-1H-cyclopenta[a]phenanthren-3-yl pivalate], the inhibition at 0.001 µM was 10 to 50%.

Take `Cc1ccccc1C(=O)O[C@H]1CC[C@@]2(C)C(=CCC3C4=CC=C(c5cccnc5)[C@@]4(C)CCC32)C1` (stereo partly drawn) [Compound 195, (3S,10R,13S)-10,13-dimethyl-17-(pyridin-3-yl)-2,3,4,7,8,9,10,11,12,13-decahydro-1H-cyclopenta[a]phenanthren-3-yl 2-methylbenzoate]: the inhibition at 0.001 µM was 10 to 50%.

With `CC(C)(C)c1ccccc1C(=O)O[C@H]1CC[C@@]2(C)C(=CC[C@H]3C4=CC=C(c5cccnc5)[C@@]4(C)CC[C@@H]32)C1` [Compound 201, (3S,10R,13S)-10,13-dimethyl-17-(pyridin-3-yl)-2,3,4,7,8,9,10,11,12,13-decahydro-1H-cyclopenta[a]phenanthren-3-yl 2-(tert-butyl)benzoate], the inhibition at 0.001 µM is less than 10%.

For the compound `CCNC(=O)O[C@H]1CC[C@@]2(C)C(=CC[C@H]3C4=CC=C(c5cccnc5)[C@@]4(C)CC[C@@H]32)C1` [Compound 202, (3S,10R,13S)-10,13-dimethyl-17-(pyridin-3-yl)-2,3,4,7,8,9,10,11,12,13-decahydro-1H-cyclopenta[a]phenanthren-3-yl ethylcarbamate], the inhibition at 0.001 µM was less than 10%.

Regarding `CC(C)(C)NC(=O)O[C@H]1CC[C@@]2(C)C(=CC[C@H]3C4=CC=C(c5cccnc5)[C@@]4(C)CC[C@@H]32)C1` [Compound 203, (3S,10R,13S)-10,13-dimethyl-17-(pyridin-3-yl)-2,3,4,7,8,9,10,11,12,13-decahydro-1H-cyclopenta[a]phenanthren-3-yl tert-butylcarbamate], the inhibition at 0.001 µM fell in the range of 10 to 50%.

Take `CNC1CC[C@@]2(C)C(CCC3C2CC[C@]2(C)C(c4cncc(C)c4)=CCC32)C1` (stereo partly drawn) [Compound 210, (10S,13S)-N,10,13-trimethyl-17-(5-methylpyridin-3-yl)-2,3,4,5,6,7,8,9,10,11,12,13,14,15-tetradecahydro-1H-cyclopenta[a]phenanthren-3-amine]: the inhibition at 0.001 µM lay within 10 to 50%.

As for `CNC1CC[C@@]2(C)C(CC[C@@H]3[C@@H]2CC[C@]2(C)C(c4cccnc4)=CC[C@@H]32)C1` (stereo partly drawn) [Compound 211, (10S,13S)-N,10,13-trimethyl-17-(pyridin-3-yl)-2,3,4,5,6,7,8,9,10,11,12,13,14,15-tetradecahydro-1H-cyclopenta[a]phenanthren-3-amine], the inhibition at 0.001 µM was 10 to 50%.

For the compound `CC(=O)N(C)C1CC[C@@]2(C)C(CCC3C2CC[C@]2(C)C(c4cncc(C)c4)=CCC32)C1` (stereo partly drawn) [Compound 212, N-((10S,13S)-10,13-dimethyl-17-(5-methylpyridin-3-yl)-2,3,4,5,6,7,8,9,10,11,12,13,14,15-tetradecahydro-1H-cyclopenta[a]phenanthren-3-yl)-N-methylacetamide], the inhibition at 0.001 µM fell in the range of 10 to 50%.

On to `CC(=O)N(C)C1CC[C@@]2(C)C(CCC3C2CC[C@]2(C)C(c4cccnc4)=CCC32)C1` (stereo partly drawn) [Compound 213, N-((10S,13S)-10,13-dimethyl-17-(pyridin-3-yl)-2,3,4,5,6,7,8,9,10,11,12,13,14,15-tetradecahydro-1H-cyclopenta[a]phenanthren-3-yl)-N-methylacetamide], for which the inhibition at 0.001 µM is 10 to 50%.

On to `C[C@]12CC[C@@H](N)CC1CC[C@@H]1[C@@H]2CC[C@]2(C)C(c3cccnc3)=CC[C@@H]12` (stereo partly drawn) [Compound 214, (3R,10S,13S)-10,13-dimethyl-17-(pyridin-3-yl)-2,3,4,5,6,7,8,9,10,11,12,13,14,15-tetradecahydro-1H-cyclopenta[a]phenanthren-3-amine], for which the inhibition at 0.001 µM lay in the range of 10 to 50%.

As for `C[C@]12CC[C@@H](N=[N+]=[N-])CC1CC[C@@H]1[C@@H]2CC[C@]2(C)C(c3cccnc3)=CC[C@@H]12` (stereo partly drawn) [Compound 214b, 3-((3R,10S,13S)-3-azido-10,13-dimethyl-2,3,4,5,6,7,8,9,10,11,12,13,14,15-tetradecahydro-1H-cyclopenta[a]phenanthren-17-yl)pyridine], the inhibition at 0.001 µM lay within 10 to 50%.

Turning to `C[C@]12CC[C@@H](NC(=O)C(F)(F)F)CC1CCC1C2CC[C@]2(C)C(c3cccnc3)=CCC12` (stereo partly drawn) [Compound 217, N-((3R,10S,13S)-10,13-dimethyl-17-(pyridin-3-yl)-2,3,4,5,6,7,8,9,10,11,12,13,14,15-tetradecahydro-1H-cyclopenta[a]phenanthren-3-yl)-2,2,2-trifluoroacetamide], the inhibition at 0.001 µM lay within 10 to 50%.

With `C[C@]12CC[C@@H](NS(C)(=O)=O)CC1=CCC1C2CC[C@]2(C)C(c3cccnc3)=CCC12` (stereo partly drawn) [Compound 225, N-((3R,10R,13S)-10,13-dimethyl-17-(pyridin-3-yl)-2,3,4,7,8,9,10,11,12,13,14,15-dodecahydro-1H-cyclopenta[a]phenanthren-3-yl)methanesulfonamide], the inhibition at 0.001 µM fell in the range of 10 to 50%.

As for `C[C@]12CC[C@@H](NC(=O)c3nccs3)CC1=CC[C@@H]1[C@@H]2CC[C@]2(C)C(c3cccnc3)=CC[C@@H]12` [Compound 229, N-((3R,10R,13S)-10,13-dimethyl-17-(pyridin-3-yl)-2,3,4,7,8,9,10,11,12,13,14,15-dodecahydro-1H-cyclopenta[a]phenanthren-3-yl)thiazole-2-carboxamide], the inhibition at 0.001 µM was 10 to 50%.

Still in this assay, the particulars now being: test compound at 1 nM, read-out: CYP17 enzymatic assay percent inhibition at 1 nM (Biological Example No. 12).
Take `CCC(=O)O[C@H]1CC[C@@]2(C)C(=CCC3C4=CC=C(c5cccnc5)[C@@]4(C)CCC32)C1` (stereo partly drawn) [Compound 193, (3S,10R,13S)-10,13-dimethyl-17-(pyridin-3-yl)-2,3,4,7,8,9,10,11,12,13-decahydro-1H-cyclopenta[a]phenanthren-3-yl propionate]: the inhibition at 0.001 µM is 10 to 50%.

As to `C[C@]12CCC3C(CC=C4C[C@@H](OC(=O)c5ccccc5)CC[C@@]43C)C1=CC=C2c1cccnc1` (stereo partly drawn) [Compound 194, (3S,10R,13S)-10,13-dimethyl-17-(pyridin-3-yl)-2,3,4,7,8,9,10,11,12,13-decahydro-1H-cyclopenta[a]phenanthren-3-yl benzoate], the inhibition at 0.001 µM was in the range of 10 to 50%.

For `CC(C)(C)C(=O)N[C@@H]1CC[C@@]2(C)C(CCC3C2CC[C@]2(C)C(c4cccnc4)=CCC32)C1` (stereo partly drawn) [Compound 218, N-((3R,10S,13S)-10,13-dimethyl-17-(pyridin-3-yl)-2,3,4,5,6,7,8,9,10,11,12,13,14,15-tetradecahydro-1H-cyclopenta[a]phenanthren-3-yl)pivalamide], the inhibition at 0.001 µM was 10 to 50%.
